Measured values taken from paper PMC9106797, “Formation and Identification of a 5-(Hydroxymethyl)-2-Furfural-Zingerone Condensate and Its Cytotoxicity in Caco-2 Cells” (Frontiers in Nutrition, 2022).
Where “and” joins values, the source holds several entries; their conditions need not be identical. Identical values can stand only once.

Assays:
[1] = Cell viability assay (CCK-8); format: cell-based; conditions: human, Caco-2 cells, read-out: IC50, cytotoxicity against Caco-2 cells; for IC50 at 24 h: 24 h incubation; for IC50 at 48 h: 48 h incubation
Procedure: The Caco-2 cell line (ATCC HTB-37) was obtained from the American Type Culture Collection (Rockville, MD, USA). Cells were cultivated by the method of Kosińska-Cagnazzo et al. ([30]) with slight modifications. Specifically, α-MEM medium supplemented with 10% FBS, 1% penicillin/streptomycin, and 1% NEAA was used to cultivate Caco-2 cells at 37°C and 5% (v/v) CO2 atmosphere. When the cells reached 80–90% confluence, they were detached with 0.25% trypsin-EDTA and further sub-cultured on fresh growth medium. Cells between passages 30 and 35 were used.
Cell viability was measured by the CCK-8 method as described by Zhao et al. ([31]) with modifications. Briefly, Caco-2 cells at a density of 2.5 × 10^4 cells/well were seeded into 96-well plates and maintained at 37°C under a humidified atmosphere containing 5% CO2 and 95% air for 24 h. Subsequently, the origin culture medium was removed, and different concentrations (2, 4, 8, 16, 32, and 64 mM) of HMZ and HMF were added. Three duplicate wells were set for each concentration. The cells were further incubated for 24 and 48 h, respectively. Then, 10 μL of CCK-8 solution was added into each well for 2 h, and the absorbance was read at 450 nm on a microplate reader (Multiskan, Thermo, USA).

Caco-2 cells = assay: Absorption of HMZ in Caco-2 cells (HPLC of treated solution); format: in vitro ADME; conditions: 2 h, 37°C
Procedure: HMZ absorption was evaluated according to de Oliveira et al. with slight modifications ([32]). Briefly, Caco-2 cells were inoculated in 6-well plates at the density of 2 × 10^4 cells/well (2 mL) and cultured until 90% confluence at 37°C with 5% CO2. Then, the cells were washed thrice with 1 mL of HBSS. Another 1 mL of HBSS was added for further culture for 30 min. Ten microliters of HMZ solution (pH 7.4) at concentrations of 1–100 μM were added separately and cultivated for 2 h to allow the adduct solution to be absorbed by cells under certain condition (37°C, 5% CO2/95% air). The treated solution was transferred into Eppendorf tubes for HPLC analysis. The control of each sample under different concentrations was the respective sample without incubation, and each of the absorption rate of the adduct by Caco-2 cells was calculated as follows:
(1) Absorption rate (%) =S1−S2/S1× 100%
where S1 is the peak area of the control, and S2 is the peak area of the sample incubated for 2 h.

[2] = Effect of reaction temperature on HMZ amount (one-factor-at-a-time, HPLC); format: physicochemical; conditions: temperature over 50°C, 3 h
Procedure: A one-factor-at-a-time design was applied to estimate the effects of different reaction parameters on HMF elimination by ZGR, as well as the adduct formation between HMF and ZGR. ZGR/HMF in the molar ratio of 2: 1 was mixed in a three-necked flask and incubated at 40°C for different durations (0.5, 1.0, 1.5, 2.0, 2.5, and 3.0 h) to investigate the effect of reaction time. ZGR/HMF in the molar ratio of 2: 1 was mixed and reacted for 3 h at different temperature levels (20, 30, 40, 50, 60, and 70°C) to study the effect of temperature. In addition, temperature and reaction duration were kept constant at 40°C and 3 h, respectively, to evaluate the effect of different ZGR/HMF molar ratios (4: 1, 3: 1, 2: 1, 1: 1, and 1: 2). At the end of each reaction, 30 μL of the aqueous reaction mixture was diluted with methanol to a final volume of 500 μL for HPLC analysis. HMF and HMZ were quantified by comparing their peak areas to each standard curve.

[3] = In vitro simulated digestion (mouth, gastric, intestinal stages), HPLC; format: in vitro ADME; conditions: for decrease of HMZ content after digestion: 37°C
Procedure: The adduct was subjected to in vitro simulated digestion at three stages, namely, the mouth, gastric, and intestinal stages, to evaluate its stability ([28], [29]). Briefly, HMZ (2 mg) was dissolved in DMSO (200 μL), diluted with ultra-pure water to the final concentration of 0.5 mg/mL, and then mixed with 6 mL of SSF in a flask. The mixture was magnetically stirred at 100 r/min for 2 min at 37°C to mimic saliva digestion. Afterward, 10 mL of SGF was added to simulate the gastric phase, and the mixture was reacted for 2 h under the same condition. Subsequently, 20 mL of SIF was added for the simulation of intestinal digestion for another 2 h. Samples (100 μL) were withdrawn at the end of each stage of the digestion process for HPLC analysis. Each digestion process was repeated in triplicate, and the content of HMZ was calculated by referring to the calibration curve.

FVB/N mice = tested on: FVB/N mice; set-up: method as in PMID 22349055; conditions: FVB/N mice, 31.25, 62.5, 125 and 250 mg SMF/kg; cited from earlier work

absorption (Caco-2 cells; HMZ 1 μM) | absorption rate (Caco-2 cells; HMZ 1 μM) | absorption (Caco-2 cells; HMZ 4 μM) | absorption rate (Caco-2 cells; HMZ 4 μM) | absorption (Caco-2 cells; HMZ 20 μM) | absorption rate (Caco-2 cells; HMZ 20 μM) | absorption (Caco-2 cells; HMZ 100 μM) | absorption rate (Caco-2 cells; HMZ 100 μM) | thermal stability in the reaction mixture [2] | decrease of HMZ content after digestion ([3]; after SGF (simulated gastric fluid), further 2 h) [%] | decrease of HMZ content after digestion ([3]; after SIF (simulated intestinal fluid), further 2 h) [%] | decrease of HMZ content after digestion ([3]; after SSF (simulated salivary fluid), 2 min) [%] | stability in simulated in vitro digestion ([3]; three digestion conditions) | Compound | IC50 at 24 h [1] [mM] | IC50 at 48 h [1] [mM] | liver toxicity (FVB/N mice)
– | – | – | – | – | – | – | – | – | – | – | – | – | O=Cc1ccc(CO)o1 [HMF, 5-(Hydroxymethyl)-2-furfural] | 35.4 ± 4.03 | 19.2 ± 2.1 | –
0.61 ± 0.75 ×10^-5 μmol | 60.74% and 60.74 ± 7.51% | 2.85 ± 0.03 ×10^-5 μmol | 71.38% and 71.38 ± 0.80% | 11.22 ± 0.03 ×10^-5 μmol | 56.11% and 56.11 ± 1.85% | 34.71 ± 0.17 ×10^-5 μmol | 34.71% and 34.71 ± 1.68% | appeared to degrade | 14.19 | 24.06 | 7.14 | moderate level | COc1cc(CCC(=O)/C=C/c2ccc(CO)o2)ccc1O [HMZ] | 41.5 ± 5.33 | 25.4 ± 3.12 | –
– | – | – | – | – | – | – | – | – | – | – | – | – | O=Cc1ccc(COS(=O)(=O)O)o1 [SMF, 5-sulfo-oxymethylfurfural] | – | – | hepatic lesions
